Reference: patent US20200264191A1, “METHODS AND KITS FOR DIAGNOSIS OF FAMILIAL MEDITERRANEAN FEVER” (INSERM (Institut National de la Santé et de la Recherche …, priority 2017, published 2020)

How the values were obtained:
[1] = system: Primary monocytes from HD or FMF patients; assay: IL-1β release by primary monocytes (ELISA of supernatant); conditions: LPS-primed; Ro 31-8220 100 μM or ATP 2.5 mM, 1.5 h
Source text: Blood was drawn in heparin-coated tubes and kept at room temperature overnight. The next day, peripheral blood mononuclear cells (PBMCs) were isolated by density-gradient centrifugation using Lymphocyte Separation Medium (Eurobio) [23]. Monocytes were isolated from PBMCs by magnetic selection using CD14 MicroBeads (Miltenyi Biotec) [24] and the AutoMACS Pro Separator (Miltenyi Biotec) following manufacturer's instructions. Monocytes were enumerated in the presence of a viability marker (propidium iodide, 10 μg/ml) by flow cytometry (BD Accuri C6 Flow Cytometer®) [25].
When indicated, monocytes were incubated for 3 hours in the presence of LPS (10 ng/ml, Invivogen). […] Following the incubation, cells were centrifuged and supernatants were collected.
Levels of IL-1β in monocyte supernatants were quantified by ELISA (R&D Systems). […] Three technical replicates per conditions were done.

[2] = system: Primary monocytes from HD or FMF patients; assay: Monocyte cell death by propidium iodide incorporation; format: cell-based, human; conditions: for difference in AUC of cell death kinetics between FMF and HD monocytes (in words): UCN-01 12.5 μM unprimed, or LPS then nigericin 5 μM
Method: Propidium iodide incorporation was monitored every 5 minutes from 5 minutes to 105 minutes post-UCN-01/nigericin stimulation using a fluorimeter. Cell death was calculated using TX-100-treated cells (100% cell death) and normalized cell death kinetics are presented (A, D). Each symbol corresponds to the average values of the normalized cell death of monocytes from 17 HD and […]. Mean and standard deviations are shown at each time point. […] (C-G) The time post-treatment needed to reach 20% monocytes cell death was calculated from each HD (n=17) and FMF patients (n=13) cell death kinetics. […] The bar represents the mean.
Cell death was determined by measuring propidium iodide incorporation/fluorescence at 1 h30 post stauroporin addition. […] The bar represents the mean. Cell death was normalized using TX-100-treated cells (100% cell death). With a cell death threshold set at 10% (horizontal line), this assay discriminates healthy donors from FMF patients.
Three technical replicates per conditions were done.

PKCε = target: T1, PKCε (Homo sapiens, UniProt Q02156); conditions: cell-free assays where stated; cited from earlier work
T1 sequence (Q02156 1-737): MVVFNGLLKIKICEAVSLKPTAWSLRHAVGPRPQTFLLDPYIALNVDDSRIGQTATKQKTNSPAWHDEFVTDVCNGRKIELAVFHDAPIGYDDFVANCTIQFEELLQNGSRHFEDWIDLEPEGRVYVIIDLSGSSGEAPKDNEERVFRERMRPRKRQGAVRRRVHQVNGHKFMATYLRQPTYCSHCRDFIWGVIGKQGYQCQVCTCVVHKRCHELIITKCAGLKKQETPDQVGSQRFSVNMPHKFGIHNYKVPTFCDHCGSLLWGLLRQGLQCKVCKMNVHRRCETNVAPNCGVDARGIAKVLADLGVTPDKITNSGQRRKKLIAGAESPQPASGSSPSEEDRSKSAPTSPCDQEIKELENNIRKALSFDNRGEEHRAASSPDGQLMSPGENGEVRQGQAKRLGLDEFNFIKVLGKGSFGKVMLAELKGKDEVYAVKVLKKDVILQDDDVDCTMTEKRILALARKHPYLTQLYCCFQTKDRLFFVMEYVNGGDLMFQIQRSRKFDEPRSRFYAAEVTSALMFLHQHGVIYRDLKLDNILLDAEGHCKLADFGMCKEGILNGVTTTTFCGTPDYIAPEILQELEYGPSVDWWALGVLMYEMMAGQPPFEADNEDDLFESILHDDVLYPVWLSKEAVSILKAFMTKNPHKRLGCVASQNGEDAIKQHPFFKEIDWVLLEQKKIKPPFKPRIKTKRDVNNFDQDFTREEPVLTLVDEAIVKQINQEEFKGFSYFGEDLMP

PKC = conditions: cited from earlier work
PKA = conditions: cited from earlier work
PKCβII = PKCβII (Homo sapiens, UniProt P05771); conditions: cell-free assays where stated; read-out: IC50 for PKCβII (PKCβ2); cited from earlier work
Sequence of PKCβII (P05771 1-673 isoform P05771-2): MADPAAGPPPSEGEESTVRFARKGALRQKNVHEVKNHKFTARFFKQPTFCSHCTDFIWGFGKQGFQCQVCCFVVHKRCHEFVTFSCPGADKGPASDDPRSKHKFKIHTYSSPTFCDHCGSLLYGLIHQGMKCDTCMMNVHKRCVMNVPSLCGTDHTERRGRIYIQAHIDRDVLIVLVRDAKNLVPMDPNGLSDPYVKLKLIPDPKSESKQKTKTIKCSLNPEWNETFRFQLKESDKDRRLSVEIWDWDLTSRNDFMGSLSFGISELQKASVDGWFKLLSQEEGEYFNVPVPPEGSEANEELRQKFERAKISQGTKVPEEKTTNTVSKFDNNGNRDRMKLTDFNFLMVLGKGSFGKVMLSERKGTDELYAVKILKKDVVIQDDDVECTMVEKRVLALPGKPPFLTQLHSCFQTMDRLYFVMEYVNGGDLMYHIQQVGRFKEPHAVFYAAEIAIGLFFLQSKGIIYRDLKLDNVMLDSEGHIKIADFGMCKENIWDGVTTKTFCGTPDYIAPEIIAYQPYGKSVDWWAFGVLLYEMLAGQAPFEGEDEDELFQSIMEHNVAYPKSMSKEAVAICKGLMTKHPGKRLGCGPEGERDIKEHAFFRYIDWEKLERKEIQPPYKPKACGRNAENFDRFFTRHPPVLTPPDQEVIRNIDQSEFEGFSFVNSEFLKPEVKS

PKCα = PKCα (Homo sapiens, UniProt P17252); conditions: cell-free assays where stated; cited from earlier work
PKCγ = PKCγ (Homo sapiens, UniProt P05129); conditions: cell-free assays where stated; cited from earlier work
PKN2 = PKN2 (Homo sapiens, UniProt Q16513); conditions: cited from earlier work
Sequence of PKN2 (Q16513 whole entry): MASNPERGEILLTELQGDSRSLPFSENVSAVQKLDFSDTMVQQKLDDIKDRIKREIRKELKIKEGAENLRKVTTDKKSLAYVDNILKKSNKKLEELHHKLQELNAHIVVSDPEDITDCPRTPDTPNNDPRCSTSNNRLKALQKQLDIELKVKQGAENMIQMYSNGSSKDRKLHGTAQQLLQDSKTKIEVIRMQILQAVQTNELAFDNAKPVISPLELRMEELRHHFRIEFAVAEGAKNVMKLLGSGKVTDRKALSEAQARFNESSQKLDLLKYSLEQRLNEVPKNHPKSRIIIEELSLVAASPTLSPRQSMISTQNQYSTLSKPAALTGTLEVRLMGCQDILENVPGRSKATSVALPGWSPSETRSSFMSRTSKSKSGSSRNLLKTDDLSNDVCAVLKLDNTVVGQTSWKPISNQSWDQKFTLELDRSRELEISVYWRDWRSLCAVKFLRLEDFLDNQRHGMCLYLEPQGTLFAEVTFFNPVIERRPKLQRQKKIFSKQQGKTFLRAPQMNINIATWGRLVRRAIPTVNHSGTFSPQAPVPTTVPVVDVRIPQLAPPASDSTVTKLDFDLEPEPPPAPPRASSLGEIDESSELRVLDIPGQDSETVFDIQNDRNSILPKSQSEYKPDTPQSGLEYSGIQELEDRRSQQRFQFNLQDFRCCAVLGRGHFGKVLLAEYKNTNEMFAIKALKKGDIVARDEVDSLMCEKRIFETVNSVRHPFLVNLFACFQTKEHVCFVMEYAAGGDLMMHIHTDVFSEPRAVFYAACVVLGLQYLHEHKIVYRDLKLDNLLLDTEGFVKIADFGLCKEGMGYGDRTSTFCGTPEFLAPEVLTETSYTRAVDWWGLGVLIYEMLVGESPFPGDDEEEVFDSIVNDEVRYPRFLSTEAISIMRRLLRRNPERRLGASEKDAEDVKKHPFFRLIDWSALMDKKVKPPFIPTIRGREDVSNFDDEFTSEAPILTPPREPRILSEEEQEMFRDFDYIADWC

PKCβI = PKCβI (Homo sapiens, UniProt P05771); conditions: cell-free assays where stated; read-out: IC50 for PKCβI (PKCβ1); cited from earlier work
Sequence of PKCβI (P05771 whole entry): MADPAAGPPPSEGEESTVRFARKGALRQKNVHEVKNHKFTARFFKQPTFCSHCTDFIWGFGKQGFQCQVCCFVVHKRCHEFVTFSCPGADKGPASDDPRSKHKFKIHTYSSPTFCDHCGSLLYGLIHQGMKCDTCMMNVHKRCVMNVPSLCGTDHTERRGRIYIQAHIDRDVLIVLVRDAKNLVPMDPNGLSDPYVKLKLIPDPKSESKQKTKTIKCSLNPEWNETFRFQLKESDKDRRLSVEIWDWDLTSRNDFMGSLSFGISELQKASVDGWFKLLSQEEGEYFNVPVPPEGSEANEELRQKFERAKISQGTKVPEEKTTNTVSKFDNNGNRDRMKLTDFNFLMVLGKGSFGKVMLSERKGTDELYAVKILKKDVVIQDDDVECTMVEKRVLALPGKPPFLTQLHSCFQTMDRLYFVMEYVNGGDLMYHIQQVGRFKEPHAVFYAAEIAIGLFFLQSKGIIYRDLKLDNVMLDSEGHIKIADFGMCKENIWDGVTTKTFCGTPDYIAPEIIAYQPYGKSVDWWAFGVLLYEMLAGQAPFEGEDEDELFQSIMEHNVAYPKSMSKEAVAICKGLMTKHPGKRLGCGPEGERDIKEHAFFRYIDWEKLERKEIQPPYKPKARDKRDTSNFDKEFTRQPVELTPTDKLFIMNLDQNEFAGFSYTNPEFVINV

[3] = system: apamin-sensitive K+ channels; conditions: cited from earlier work
PKCζ = target: T2, PKCζ (Homo sapiens, UniProt Q05513); conditions: cited from earlier work
T2 sequence (Q05513 1-592): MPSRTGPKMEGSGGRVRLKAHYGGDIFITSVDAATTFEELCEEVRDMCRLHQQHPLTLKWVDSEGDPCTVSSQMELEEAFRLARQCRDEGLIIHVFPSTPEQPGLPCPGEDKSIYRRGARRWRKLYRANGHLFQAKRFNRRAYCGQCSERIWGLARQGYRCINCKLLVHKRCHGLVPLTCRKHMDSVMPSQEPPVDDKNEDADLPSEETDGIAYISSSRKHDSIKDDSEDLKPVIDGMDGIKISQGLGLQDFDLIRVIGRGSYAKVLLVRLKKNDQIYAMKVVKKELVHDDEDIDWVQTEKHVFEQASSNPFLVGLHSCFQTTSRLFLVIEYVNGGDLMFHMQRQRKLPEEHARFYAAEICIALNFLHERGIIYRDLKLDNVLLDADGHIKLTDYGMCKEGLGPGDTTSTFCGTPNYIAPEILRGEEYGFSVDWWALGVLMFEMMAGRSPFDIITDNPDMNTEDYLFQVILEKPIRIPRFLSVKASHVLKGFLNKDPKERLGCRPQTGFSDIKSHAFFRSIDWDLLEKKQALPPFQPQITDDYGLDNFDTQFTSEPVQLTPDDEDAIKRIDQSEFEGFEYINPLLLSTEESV

PKCμ = target: T3, PKCμ (Homo sapiens, UniProt Q15139); conditions: cited from earlier work
T3 sequence (Q15139 1-912): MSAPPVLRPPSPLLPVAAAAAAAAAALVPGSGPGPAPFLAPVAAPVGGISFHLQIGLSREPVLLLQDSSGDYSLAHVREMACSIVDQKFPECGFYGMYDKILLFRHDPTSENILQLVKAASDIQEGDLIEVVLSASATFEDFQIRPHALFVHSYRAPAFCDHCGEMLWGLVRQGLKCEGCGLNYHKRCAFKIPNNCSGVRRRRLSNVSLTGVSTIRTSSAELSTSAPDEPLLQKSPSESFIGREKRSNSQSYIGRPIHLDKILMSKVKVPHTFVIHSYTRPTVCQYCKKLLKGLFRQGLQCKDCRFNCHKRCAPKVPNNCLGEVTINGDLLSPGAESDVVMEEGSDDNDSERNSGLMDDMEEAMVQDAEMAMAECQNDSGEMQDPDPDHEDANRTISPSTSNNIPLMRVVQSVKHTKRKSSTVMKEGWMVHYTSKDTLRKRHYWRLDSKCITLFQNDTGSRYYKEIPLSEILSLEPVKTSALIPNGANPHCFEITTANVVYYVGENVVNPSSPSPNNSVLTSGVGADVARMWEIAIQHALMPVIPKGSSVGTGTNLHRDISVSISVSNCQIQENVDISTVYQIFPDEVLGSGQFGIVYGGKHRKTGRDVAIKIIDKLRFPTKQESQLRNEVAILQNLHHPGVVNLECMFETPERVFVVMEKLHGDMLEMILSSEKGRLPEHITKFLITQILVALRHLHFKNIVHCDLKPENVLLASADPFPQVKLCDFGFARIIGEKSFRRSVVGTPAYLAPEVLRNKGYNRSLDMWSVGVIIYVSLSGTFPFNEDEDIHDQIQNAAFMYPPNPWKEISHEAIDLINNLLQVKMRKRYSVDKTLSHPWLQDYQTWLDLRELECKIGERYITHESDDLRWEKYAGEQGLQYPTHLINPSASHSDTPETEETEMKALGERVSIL

PKCδ = PKCδ (Homo sapiens, UniProt Q05655); conditions: cell-free assays where stated; cited from earlier work
PKCβ = PKCβ (Homo sapiens, UniProt P05771); conditions: cell-free assays where stated; cited from earlier work
Sequence of PKCβ (P05771 whole entry, species assumed): as the sequence (P05771 whole entry) above

PKC (Rat brain) = conditions: cited from earlier work
PKCθ = PKCθ (Homo sapiens, UniProt Q04759); conditions: cell-free assay; cited from earlier work
Sequence of PKCθ (Q04759 whole entry): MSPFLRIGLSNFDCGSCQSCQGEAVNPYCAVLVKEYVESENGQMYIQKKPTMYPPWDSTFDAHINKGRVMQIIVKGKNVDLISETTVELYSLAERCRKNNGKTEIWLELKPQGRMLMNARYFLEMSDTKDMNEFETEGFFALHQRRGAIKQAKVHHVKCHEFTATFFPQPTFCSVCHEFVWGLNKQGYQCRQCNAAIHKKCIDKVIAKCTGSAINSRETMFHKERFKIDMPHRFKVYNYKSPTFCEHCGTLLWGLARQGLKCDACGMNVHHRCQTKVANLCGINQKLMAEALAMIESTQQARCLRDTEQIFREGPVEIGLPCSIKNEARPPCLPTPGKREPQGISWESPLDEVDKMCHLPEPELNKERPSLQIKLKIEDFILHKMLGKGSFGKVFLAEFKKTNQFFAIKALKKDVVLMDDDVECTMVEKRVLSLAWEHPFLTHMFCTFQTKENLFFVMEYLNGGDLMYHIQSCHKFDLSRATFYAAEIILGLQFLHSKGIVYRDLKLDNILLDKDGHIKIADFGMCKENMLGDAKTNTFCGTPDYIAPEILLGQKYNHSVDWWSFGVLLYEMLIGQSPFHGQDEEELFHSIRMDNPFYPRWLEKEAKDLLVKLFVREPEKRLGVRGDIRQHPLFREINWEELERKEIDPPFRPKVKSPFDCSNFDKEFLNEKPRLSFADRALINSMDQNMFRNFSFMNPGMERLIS

PI3K = conditions: cited from earlier work
[4] = LPS 10 ng/ml 3 h, then nigericin 5 μM

Nc1ncnc2c1ncn2[C@@H]1O[C@H](COP(=O)(O)OP(=O)(O)OP(=O)(O)O)[C@@H](O)[C@H]1O [ATP]
difference in IL-1β release between FMF and HD monocytes (in words) [1]: did not observe any difference

CO[C@@H]1C[C@@H](C[C@H]2CC[C@H](C)[C@H]([C@@H](C)C(=O)O)O2)O[C@]2(O[C@](C)([C@H]3CC[C@@](C)([C@@H]4O[C@@H]([C@H]5O[C@@](O)(CO)[C@H](C)C[C@@H]5C)C[C@@H]4C)O3)C[C@H]2C)[C@@H]1C [nigericin]
time to reach 20% cell death, FMF patients' monocytes [2, 4]: 74 min | time to reach 20% cell death, monocytes from healthy controls [2, 4]: 72 min | difference in AUC of cell death kinetics between FMF and HD monocytes (in words) [2]: did not demonstrate any statistical difference

CN[C@@H]1C[C@H]2O[C@@](C)([C@@H]1OC)n1c3ccccc3c3c4c(c5c6ccccc6n2c5c31)C(=O)N[C@H]4O [UCN-01, 7-hydroxystaurosporine]
difference in AUC of cell death kinetics between FMF and HD monocytes (in words) [2]: statistical difference | time to reach 20% cell death, FMF patients' monocytes ([2]; UCN-01 12.5 μM, no priming): less than 50 minutes | IC50 (PKCε): 530 nM

O=c1ccc2ccc(O)c(O)c2o1 [Daphnetin]
IC50 (PKC): 25000 nM | IC50 (PKA): 9330 nM

CS(=O)(=O)O.Cn1cc(C2=C(c3cn(CCCSC(=N)N)c4ccccc34)C(=O)NC2=O)c2ccccc21 [Ro 31-8220 Mesylate]
IC50 (PKCβII): 14 nM | difference in IL-1β release between FMF and HD monocytes (in words) [1]: same trends | IC50 (PKCα): 5 nM | IC50 (PKCγ): 27 nM | efficacy to inhibit PKN2 (in words) (PKN2): low efficacy | IC50 (PKCβI): 24 nM | IC50 (PKCε): 24 nM

Cc1cc(N)c2ccccc2[n+]1CCCCCCCCCC[n+]1c(C)cc(N)c2ccccc21 [Dequalinium Chloride]
IC50 [3]: 1100 nM | IC50 (PKC): 7000 to 18000 nM

COc1ccc2c(c1)c(C1=C(c3c[nH]c4ccccc34)C(=O)NC1=O)cn2CCCN(C)C [Go 6983]
activity on PKCζ (in words) (PKCζ): less potent | activity on PKCμ (in words) (PKCμ): inactive | IC50 (PKCδ): 10 nM | IC50 (PKCα): 7 nM | IC50 (PKCγ): 6 nM | IC50 (PKCβ): 7 nM

Cn1c2ccccc2c2c3c(c4c5ccccc5n(CCC#N)c4c21)CNC3=O [Go6976]
IC50 (PKC (Rat brain)): 7.9 nM

CN(C)CCCn1cc(C2=C(c3c[nH]c4ccccc34)C(=O)NC2=O)c2ccccc21 [Bisindolylmaleimide I]
IC50 (PKCβII): 16 nM | IC50 (PKCα): 20 nM | selectivity for PKC as compared to EGFR, PDGFR and insulin receptor (PKC): more than 3000 fold | IC50 (PKCγ): 20 nM | IC50 (PKCβI): 17 nM

CN1CCN(c2nc(C3=C(c4c[nH]c5ccccc45)C(=O)NC3=O)c3ccccc3n2)CC1 [Sotrastaurin]
activity on PKCζ (in words) (PKCζ): inactive | Ki (PKCθ): 0.22 nM

O=c1c(O)c(-c2ccc(O)c(O)c2)oc2cc(O)cc(O)c12 [Quercetin]
IC50 (PI3K): 2400 to 5400 nM
